Measured values from patent US8912236B2 (Alcon Research, Ltd., priority 2009, dated 2014).
pIC50: −log10 of the molar value.

Test system: FGFR
Test: Kinase inhibition, cell-free enzymatic assay
Assay type: biochemical
Conditions: 1 mM ATP

pIC50: < 4.90
Compound: Cc1ccc(F)c(NC(=O)Nc2ccc(-c3cccc4[nH]nc(N)c34)cc2)c1 [RTK Inhibitor, N-[4-(3-amino-1H-indazol-4-yl)phenyl]-N′-(2-fluoro-5-methylphenyl) urea]
